Test results: PMC6273037, “Synthesis, Structure and Cytotoxic Activity of Mono- and Dialkoxy Derivatives of 5,8-Quinolinedione” (Molecules, 2016)
Like-named read-outs stand apart in the source and are kept apart here.

How the values were obtained:
C-32 (human melanoma) = experiment: WST-1 antiproliferative assay, melanoma C-32; type: cell-based; settings: WST-1 test, incubation time 72 h, read-out: Human Cell Line/IC50 ± SD C-32
Description: (§1) As a reference, the cytotoxic agent cisplatin was applied.
(§2) The synthesized compounds were tested against tumor cells SNB-19 (human glioblastoma, DSMZ-German Collection of Microorganisms and Cell Cultures, Braunschweig, Germany), MDA-MB-231 (human adenocarcinoma, breast cancer; ATCC), C-32 (human melanoma; ATCC) and nontumor cells HFF-1 (normal human fibroblasts derived from foreskin, ATCC). The cultured cells were kept at 37 °C and in 5% CO2. The cells were seeded (10^3 cells/well/[…] DMEM supplemented with FBS (Fetal Bovine Serum, Lonza) to a final concentration of 10% and streptomycin 10 mg/mL and penicillin 1000 IU/mL (Sigma), using 96-well plates (Corning).
(§3) The antiproliferative effect of the synthesized compounds was determined using the Cell Proliferation Reagent WST-1 assay (Roche Diagnostics, Mannheim, Germany). […] After an exposure to the tested compounds at concentration varying in the range 0.4–400 nM/mL, the cell viability was quantified by a cell proliferation assay. […] The cytotoxic activity of the tested compound was compared to the cisplatin (positive control). The experiments were repeated in triplicate for each concentration of the tested compound. The initial concentration of the tested compounds was 1 mg/mL DMSO. […] Calculations of the IC50 values were performed using the GraphPad Prism 6 (GraphPad Software, San Diego, CA, USA).

[1] = test system: SNB-19 (human glioblastoma); experiment: WST-1 antiproliferative assay, glioblastoma SNB-19; type: cell-based; settings: WST-1 test, incubation time 72 h, read-out: Human Cell Line/IC50 ± SD SNB-19
Description: as §1, §2, §3

[2] = test system: MDA-MB-231 (human adenocarcinoma, breast cancer); experiment: WST-1 antiproliferative assay, breast cancer MDA-MB-231; type: cell-based; settings: for IC50: WST-1 test, incubation time 72 h, read-out: Human Cell Line/IC50 ± SD MDA-MB-231; for selectivity index (SI): breast cancer (MDA-MB-231) cell line
Description: as §1, §2, §3

[3] = test system: HFF-1 (normal human fibroblasts); experiment: WST-1 antiproliferative assay, normal fibroblasts HFF-1; type: cell-based; settings: WST-1 test, incubation time 72 h, Neg = Negative in the concentration used; for IC50: read-out: Human Cell Line/IC50 ± SD HFF-1
Description: as §1, §2, §3

Compound	IC50 (C-32 (human melanoma))	IC50 [1]	IC50 [2]	IC50 [3]	IC50 (C-32 (human melanoma); Homo sapiens)	IC50 ([1]; Homo sapiens, SNB-19)	IC50 ([2]; Homo sapiens, MDA-MB-231)	selectivity index (SI) [2]	IC50 ([3]; Homo sapiens, HFF-1)	melting point	Human Cell Line/IC50 ± SD HFF-1 [3]
6-Chloro-7-(1-methylbenzyloxy)-5,8-quinolinedione [Compound 9]	0.81 ± 0.01 µM	2.3 ± 0.5 µM	271 ± 9.8 µM	2 ± 0.3 µM	–	–	–	–	–	–	–
COC1=C(Cl)C(=O)c2cccnc2C1=O [Compound 2, 6-Chloro-7-methoxy-5,8-quinolinedione]	–	–	–	–	19.2 ± 2.1 µM	42.2 ± 0.1 µM	1.5 ± 0.2 µM	18.4	27.6 ± 2.1 µM	161 to 163 °C	–
CCOC1=C(Cl)C(=O)c2cccnc2C1=O [Compound 3, 6-Chloro-7-ethoxy-5,8-quinolinedione]	–	–	–	–	30.7 ± 1.1 µM	10.3 ± 2.4 µM	24 ± 2.8 µM	–	1.3 ± 0.5 µM	112 to 114 °C	–
CCCOC1=C(Cl)C(=O)c2cccnc2C1=O [Compound 4, 6-Chloro-7-propoxy-5,8-quinolinedione]	–	–	–	–	0.2 ± 0.01 µM	0.36 ± 0.03 µM	22.4 ± 2.7 µM	–	–	121 to 122 °C	Neg
C=CCOC1=C(Cl)C(=O)c2cccnc2C1=O [Compound 5, 6-Chloro-7-(2-propenoxy)-5,8-quinolinedione]	–	–	–	–	0.28 ± 0.09 µM	0.3 ± 0.01 µM	17.2 ± 2.8 µM	–	–	89 to 90 °C	Neg
O=C1C(Cl)=C(OCCCl)C(=O)c2ncccc21 [Compound 6, 6-Chloro-7-(2-chloroethoxy)-5,8-quinolinedione]	–	–	–	–	22.8 ± 2.5 µM	18.3 ± 1.4 µM	17 ± 3 µM	–	15.8 ± 1.2 µM	114 to 116 °C	–
N#CCCOC1=C(Cl)C(=O)c2cccnc2C1=O [Compound 7, 6-Chloro-7-(2-cyanoethoxy)-5,8-quinolinedione]	–	–	–	–	119 ± 4.3 µM	58.3 ± 2.8 µM	164 ± 3.9 µM	–	2.5 ± 0.4 µM	177 to 179 °C	–
O=C1C(Cl)=C(OC2CCCCC2)C(=O)c2ncccc21 [Compound 8, 6-Chloro-7-cyclohexyloxy-5,8-quinolinedione]	–	–	–	–	1.4 ± 0.1 µM	1.8 ± 0.1 µM	3.5 ± 0.3 µM	–	13.9 ± 3 µM	123 to 124 °C	–
COC1=C(OC)C(=O)c2ncccc2C1=O [Compound 10, 6,7-Dimethoxy-5,8-quinolinedione]	–	–	–	–	–	–	–	–	–	132 to 133 °C	–
CCOC1=C(OCC)C(=O)c2ncccc2C1=O [Compound 11, 6,7-Diethoxy-5,8-quinolinedione]	–	–	–	–	17.6 ± 1.6 µM	2.1 ± 0.1 µM	18.6 ± 2 µM	–	–	69 to 70 °C	Neg
CCCOC1=C(OCCC)C(=O)c2ncccc2C1=O [Compound 12, 6,7-Dipropoxy-5,8-quinolinedione]	–	–	–	–	1.1 ± 0.1 µM	0.7 ± 0.02 µM	3 ± 0.3 µM	–	–	133 to 135 °C	Neg
C=CCOC1=C(OCC=C)C(=O)c2ncccc2C1=O [Compound 13, 6,7-di(2-Propenyloxy)-5,8-quinolinedione]	–	–	–	–	1.5 ± 0.01 µM	0.2 ± 0.01 µM	12.6 ± 2.7 µM	–	–	135 to 136 °C	Neg
O=C1C(OCCCl)=C(OCCCl)C(=O)c2ncccc21 [Compound 14, 6,7-di(2-Chloroethoxy)-5,8-quinolinedione]	–	–	–	–	12.1 ± 0.2 µM	3.5 ± 0.3 µM	10.9 ± 1.4 µM	–	1.9 ± 0.2 µM	189 to 191 °C	–
O=C1C(OCC(F)(F)F)=C(OCC(F)(F)F)C(=O)c2ncccc21 [Compound 15, 6,7-di(2,2,2-Trifluoroethoxy)-5,8-quinolinedione]	–	–	–	–	10.9 ± 1.3 µM	14.9 ± 0.7 µM	2.7 ± 0.1 µM	4.6	12.4 ± 1.2 µM	110 to 111 °C	–
N#CCCOC1=C(OCCC#N)C(=O)c2ncccc2C1=O [Compound 16, 6,7-di(2-Cyanoethoxy)-5,8-quinolinedione]	–	–	–	–	134 ± 10.7 µM	204 ± 14.3 µM	111 ± 3.7 µM	–	18.2 ± 2.6 µM	45 to 47 °C	–
O=C1C(OC2CCCCC2)=C(OC2CCCCC2)C(=O)c2ncccc21 [Compound 17, 6,7-Dicyclohexloxy-5,8-quinolinedione]	–	–	–	–	1.4 ± 0.1 µM	1.7 ± 0.3 µM	13.8 ± 0.1 µM	–	–	–	Neg
N.N.[Cl][Pt][Cl] [cisplatin, reference compound]	16.4 ± 1.2 µM	18.9 ± 0.4 µM	25.5 ± 0.2 µM	9.1 ± 1.8 µM	–	–	–	–	–	–	–
